Data reported in patent US20250059174A1, “Pharmaceutical Compounds and Compositions as C-Kit Kinase Inhibitors” (Enanta Pharmaceuticals, Inc., priority 2023, published 2025).

Key:
[1] = target: Recombinant human c-KIT kinase (Homo sapiens (Human), UniProt P10721); assay: c-KIT kinase chemiluminescence assay (ADP-Glo); format: biochemical; settings: ATP 50 μM
In short: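 ADP formed by c-KIT on polyEY over 2 h at RT (after 30 min enzyme preincubation; Tris pH 7.5, MgCl2, BSA, DTT buffer) was detected by ADP-Glo luminescence. IC50 and Hill slope were fitted to control-normalized activity across compound concentrations.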

M-07e cells = assay: M-07e cellular assay (SCF-mediated cell proliferation); format: cell-based; settings: Homo sapiens, 72 hours, CellTiter Glo
In short: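 CellTiter Glo luminescence after 72 h compound exposure in SCF (EC90)-stimulated M-07e cells expressing endogenous human c-KIT.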

Chain of Recombinant human c-KIT kinase (P10721 26-976): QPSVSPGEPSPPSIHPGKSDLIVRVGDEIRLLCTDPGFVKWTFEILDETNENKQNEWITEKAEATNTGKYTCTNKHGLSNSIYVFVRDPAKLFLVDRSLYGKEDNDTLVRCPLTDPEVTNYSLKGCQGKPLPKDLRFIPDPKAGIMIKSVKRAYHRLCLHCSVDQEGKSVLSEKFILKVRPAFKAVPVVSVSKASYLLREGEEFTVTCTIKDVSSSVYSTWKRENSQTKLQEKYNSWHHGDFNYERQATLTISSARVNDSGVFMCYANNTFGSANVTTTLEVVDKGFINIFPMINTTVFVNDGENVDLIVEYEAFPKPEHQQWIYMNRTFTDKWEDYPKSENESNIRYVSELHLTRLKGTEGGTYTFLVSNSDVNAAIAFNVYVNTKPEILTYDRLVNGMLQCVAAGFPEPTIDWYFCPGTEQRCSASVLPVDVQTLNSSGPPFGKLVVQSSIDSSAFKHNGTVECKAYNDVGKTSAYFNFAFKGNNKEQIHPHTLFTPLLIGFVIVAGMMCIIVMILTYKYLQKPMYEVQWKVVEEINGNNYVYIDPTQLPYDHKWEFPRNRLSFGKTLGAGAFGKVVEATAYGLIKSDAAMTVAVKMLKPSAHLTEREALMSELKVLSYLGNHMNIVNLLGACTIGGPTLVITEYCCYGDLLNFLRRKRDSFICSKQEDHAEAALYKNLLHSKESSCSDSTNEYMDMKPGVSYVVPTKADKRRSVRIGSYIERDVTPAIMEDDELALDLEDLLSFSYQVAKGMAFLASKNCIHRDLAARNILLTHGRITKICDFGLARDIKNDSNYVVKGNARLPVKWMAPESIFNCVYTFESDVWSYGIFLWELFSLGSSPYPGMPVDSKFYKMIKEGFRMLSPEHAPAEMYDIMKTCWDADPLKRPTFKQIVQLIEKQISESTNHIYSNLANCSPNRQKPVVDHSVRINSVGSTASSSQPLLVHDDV

Row | Structure (SMILES) | IC50 [1] [nM] | EC50 (M-07e cells) [nM]
1 | Cc1ccc(-c2noc([C@H]3C[C@@H]3F)n2)cc1NC(=O)c1cnc(-c2ccc(C(C)(C)O)s2)o1 [Example 308] | > 1000 | > 1000
2 | Cc1ncc(-c2nnn(C3CC(F)(F)C3)n2)cc1NC(=O)c1cnn2ccc(N3CC4(C3)CC(O)(C(F)F)C4)cc12 [Example 312] | 100 to 1000 | < 100
3 | Cc1ccc(-c2ncc(OC(F)F)cn2)cc1NC(=O)c1cnn2ccc(N3CC4(C3)CC(O)(C(F)F)C4)cc12 [Example 314] | < 100 | < 100
4 | Cc1ccc(-c2ncc(OC(F)(F)F)cn2)cc1NC(=O)c1cnn2ccc(N3CC4(C3)CC(O)(C(F)F)C4)cc12 [Example 315] | < 100 | < 100
5 | Cc1ncc(-c2ncc(OC(F)F)cn2)cc1NC(=O)c1cnn2ccc(N3CC4(C3)CC(O)(C(F)F)C4)cc12 [Example 316] | 100 to 1000 | 100 to 1000
6 | Cc1ncc(-c2ncc(C3CC3)cn2)cc1NC(=O)c1cnn2ccc(N3CC4(C3)CC(O)(C(F)F)C4)cc12 [Example 317] | 100 to 1000 | < 100
7 | Cc1ccc(-c2nc3cc(F)ccn3n2)cc1NC(=O)c1cnn2ccc(N3CC4(C3)CC(O)(C(F)F)C4)cc12 [Example 318] | < 100 | < 100
8 | Cc1ccc(-c2ncc3c(ccn3C(F)F)n2)cc1NC(=O)c1cnn2ccc(N3CC4(C3)CC(O)(C(F)F)C4)cc12 [Example 319] | < 100 | < 100
9 | Cc1ccc(-c2ncc3cccn3n2)cc1NC(=O)c1cnn2ccc(N3CC4(C3)CC(O)(C(F)F)C4)cc12 [Example 320] | < 100 | < 100
10 | Cc1ccc(-c2nc3n(n2)CCCC3)cc1NC(=O)c1cnn2ccc(N3CC4(C3)CC(O)(C(F)F)C4)cc12 [Example 321] | 100 to 1000 | 100 to 1000
11 | Cc1ccc(-c2nc3n(n2)CCN(C(=O)OC(C)(C)C)C3)cc1NC(=O)c1cnn2ccc(N3CC4(C3)CC(O)(C(F)F)C4)cc12 [Example 322] | < 100 | 100 to 1000
12 | Cc1ccc(-c2nc3n(n2)CCN(C(=O)C2CC2)C3)cc1NC(=O)c1cnn2ccc(N3CC4(C3)CC(O)(C(F)F)C4)cc12 [Example 323] | 100 to 1000 | > 1000
13 | COC(=O)N1CCn2nc(-c3ccc(C)c(NC(=O)c4cnn5ccc(N6CC7(C6)CC(O)(C(F)F)C7)cc45)c3)nc2C1 [Example 324] | 100 to 1000 | 100 to 1000
14 | Cc1ncc(-c2ncc(C(C)C)cn2)cc1NC(=O)c1cnn2ccc(N3CC4(C3)CC(O)(C(F)F)C4)cc12 [Example 326] | < 100 | < 100
15 | Cc1ncc(-c2ncc(C(F)F)cn2)cc1NC(=O)c1cnn2ccc(N3CC4(C3)CC(O)(C(F)F)C4)cc12 [Example 327] | 100 to 1000 | 100 to 1000
16 | Cc1ncc(-c2ncc(C(F)(F)F)cn2)cc1NC(=O)c1cnn2ccc(N3CC4(C3)CC(O)(C(F)F)C4)cc12 [Example 328] | 100 to 1000 | < 100

Row | Structure (SMILES) | IC50 [1] [nM] | EC50 (M-07e cells) [nM]
17 | Cc1ccc(-c2cnc(OC(F)F)nc2)cc1NC(=O)c1cnn2ccc(N3CC4(COC4)C3)cc12 [Example 329] | < 100 | 100 to 1000
18 | Cc1ncc(-c2ccc(OC(F)F)nc2)cc1NC(=O)c1cnn2ccc(N3CC4(COC4)C3)cc12 [Example 330] | 100 to 1000 | < 100
19 | Cc1ncc(-c2ccc(OC(F)F)cn2)cc1NC(=O)c1cnn2ccc(N3CC4(C3)CC(O)(C(F)F)C4)cc12 [Example 331] | 100 to 1000 | < 100
20 | Cc1ncc(-c2ccc(OC(F)(F)F)cn2)cc1NC(=O)c1cnn2ccc(N3CC4(COC4)C3)cc12 [Example 332] | 100 to 1000 | < 100
21 | Cc1ncc(-c2ccc(OC(F)(F)F)cn2)cc1NC(=O)c1cnn2ccc(N3CC4(C3)CC(O)(C(F)F)C4)cc12 [Example 333] | < 100 | < 100
22 | Cc1ccc(-c2nccc(C3CC3)n2)cc1NC(=O)c1cnn2ccc(N3CC4(COC4)C3)cc12 [Example 334] | 100 to 1000 | < 100
23 | Cc1ccc(-c2ncc(C3CC3)cn2)cc1NC(=O)c1cnn2ccc(N3CC4(COC4)C3)cc12 [Example 335] | < 100 | < 100
24 | Cc1ccc(-c2ccc(C3CC3)cn2)cc1NC(=O)c1cnn2ccc(N3CC4(COC4)C3)cc12 [Example 336] | < 100 | < 100
25 | Cc1ccc(-c2ncc(C(F)(F)F)cn2)cc1NC(=O)c1cnn2ccc(N3CC4(COC4)C3)cc12 [Example 337] | 100 to 1000 | < 100
26 | Cc1ccc(-c2ncc(OC(F)F)cn2)cc1NC(=O)c1cnn2ccc(N3CC4(COC4)C3)cc12 [Example 338] | 100 to 1000 | < 100
27 | Cc1ccc(-c2ncc(C3CC3)cn2)cc1NC(=O)c1cnn2ccc(N3CC4(C3)CC(O)(C(F)F)C4)cc12 [Example 339] | < 100 | < 100
28 | Cc1ccc(-c2cnc(C3CC3)nc2)cc1NC(=O)c1cnn2ccc(N3CC4(COC4)C3)cc12 [Example 340] | < 100 | < 100
29 | Cc1ccc(-c2cnc(C3CC3)cn2)cc1NC(=O)c1cnn2ccc(N3CC4(COC4)C3)cc12 [Example 341] | < 100 | < 100
30 | Cc1ccc(-c2ccc(C3CC3)nc2)cc1NC(=O)c1cnn2ccc(N3CC4(COC4)C3)cc12 [Example 342] | < 100 | < 100
31 | Cc1ccc(-c2ccc(C3CC3)nn2)cc1NC(=O)c1cnn2ccc(N3CC4(COC4)C3)cc12 [Example 343] | < 100 | < 100
32 | Cc1ccc(-c2ncc(C(F)F)cn2)cc1NC(=O)c1cnn2ccc(N3CC4(COC4)C3)cc12 [Example 344] | 100 to 1000 | < 100

Continued, in another order:

Row | IC50 [1] [nM] | Structure (SMILES) | EC50 (M-07e cells) [nM]
33 | 100 to 1000 | COC(=O)Nc1ccc(-c2ncc(C(=O)Nc3cc(-c4noc([C@H]5C[C@@H]5F)n4)ccc3C)o2)cc1 [Example 308-48] | 100 to 1000
34 | 100 to 1000 | Cc1ccc(-c2noc([C@H]3C[C@@H]3F)n2)cc1NC(=O)c1cnc(-c2ccc3c(c2)NC(=O)CO3)o1 [Example 308-52] | 100 to 1000
35 | 100 to 1000 | Cc1ccc(-c2noc([C@H]3C[C@@H]3F)n2)cc1NC(=O)c1cnc(-c2ccc3c(c2)O[C@@H](C)CN3)o1 [Example 308-53] | 100 to 1000
36 | 100 to 1000 | Cc1ccc(-c2noc([C@H]3C[C@@H]3F)n2)cc1NC(=O)c1cnc(-c2ccc3c(c2)O[C@H](C)CN3)o1 [Example 308-54] | 100 to 1000
37 | 100 to 1000 | Cc1ccc(-c2noc([C@H]3C[C@@H]3F)n2)cc1NC(=O)c1cnc(-c2ccc3c(c2)CC(=O)N3C)o1 [Example 308-55] | 100 to 1000
38 | 100 to 1000 | Cc1ccc(-c2noc([C@H]3C[C@@H]3F)n2)cc1NC(=O)c1cnc(-c2ccc3[nH]c4c(c3c2)CCN(C(=O)OC(C)(C)C)C4)o1 [Example 308-56] | 100 to 1000
39 | < 100 | Cc1ccc(-c2noc([C@H]3C[C@@H]3F)n2)cc1NC(=O)c1cnc(-c2ccc3[nH]c4c(c3c2)CCNC4)o1 [Example 308-57] | 100 to 1000
40 | < 100 | COC(=O)N1CC(c2nc(-c3ccc(C)c(NC(=O)c4cnc(-c5ccc6c(c5)CC(=O)N6)o4)c3)no2)C1 [Example 308-58] | 100 to 1000
41 | 100 to 1000 | COC(=O)N1CC(c2nc(-c3cc(NC(=O)c4cnc(-c5ccc6c(c5)CC(=O)N6)o4)c(C)cc3F)no2)C1 [Example 308-59] | 100 to 1000
42 | > 1000 | Cc1ccc(-c2noc(C3CN(C(=O)OCc4ccccc4)C3)n2)cc1NC(=O)c1cnc(-c2ccc3c(c2)CC(=O)N3)o1 [Example 308-60] | > 1000
43 | 100 to 1000 | Cc1ccc(-c2noc([C@H]3C[C@@H]3F)n2)cc1NC(=O)c1cnc(-c2ccc3c(c2)C(C)C(=O)N3)o1 (stereo partly drawn) [Example 308-61] | 100 to 1000
44 | 100 to 1000 | Cc1ccc(-c2noc(C3CN(C(=O)OC(C)C)C3)n2)cc1NC(=O)c1cnc(-c2ccc3c(c2)CC(=O)N3)o1 [Example 308-62] | > 1000
45 | 100 to 1000 | Cc1ccc(-c2noc(C3CN(C(=O)OC4CC4)C3)n2)cc1NC(=O)c1cnc(-c2ccc3c(c2)CC(=O)N3)o1 [Example 308-63] | 100 to 1000
46 | > 1000 | Cc1ncc(-c2nnnn2C)cc1NC(=O)c1cnn2ccc(N3CC4(C3)CC(O)(C(F)F)C4)cc12 [Example 312-1] | > 1000
47 | 100 to 1000 | Cc1ncc(-c2nnn(C)n2)cc1NC(=O)c1cnn2ccc(N3CC4(C3)CC(O)(C(F)F)C4)cc12 [Example 312-2] | < 100
48 | > 1000 | [2H]C([2H])([2H])n1nnnc1-c1cnc(C)c(NC(=O)c2cnn3ccc(N4CC5(C4)CC(O)(C(F)F)C5)cc23)c1 [Example 312-3] | > 1000
49 | 100 to 1000 | [2H]C([2H])([2H])n1nnc(-c2cnc(C)c(NC(=O)c3cnn4ccc(N5CC6(C5)CC(O)(C(F)F)C6)cc34)c2)n1 [Example 312-4] | < 100
50 | > 1000 | Cc1ncc(-c2nnn(CC(F)(F)F)n2)cc1NC(=O)c1cnn2ccc(N3CC4(C3)CC(O)(C(F)F)C4)cc12 [Example 312-5] | < 100
51 | > 1000 | Cc1ncc(-c2nnn(C(C)C)n2)cc1NC(=O)c1cnn2ccc(N3CC4(C3)CC(O)(C(F)F)C4)cc12 [Example 312-6] | < 100
52 | 100 to 1000 | Cc1ncc(-c2nnn(CC3CC3)n2)cc1NC(=O)c1cnn2ccc(N3CC4(C3)CC(O)(C(F)F)C4)cc12 [Example 312-7] | < 100
53 | > 1000 | Cc1ncc(-c2nnn(C3CNC3)n2)cc1NC(=O)c1cnn2ccc(N3CC4(C3)CC(O)(C(F)F)C4)cc12 [Example 312-8] | > 1000
54 | > 1000 | Cc1ncc(-c2nnn(C3CN(C(=O)OC(C)(C)C)C3)n2)cc1NC(=O)c1cnn2ccc(N3CC4(C3)CC(O)(C(F)F)C4)cc12 [Example 312-9] | 100 to 1000
